Test results from PMC7560015, “Indoline-6-Sulfonamide Inhibitors of the Bacterial Enzyme DapE” (Antibiotics, 2020).
Where two headings read alike, the source gives them in different places.

Columns and labels:
[1] = molecular target: T1, HiDapE (Haemophilus influenzae, UniProt P44514); experiment: ninhydrin-based DapE inhibition assay (N6-methyl-L,L-SDAP substrate); type: biochemical; settings: for IC50: from three or four % inhibition points, N-Me-SDAP substrate
T1 construct: His6 (cleaved yes); made in house
T1 sequence (P44514 whole entry): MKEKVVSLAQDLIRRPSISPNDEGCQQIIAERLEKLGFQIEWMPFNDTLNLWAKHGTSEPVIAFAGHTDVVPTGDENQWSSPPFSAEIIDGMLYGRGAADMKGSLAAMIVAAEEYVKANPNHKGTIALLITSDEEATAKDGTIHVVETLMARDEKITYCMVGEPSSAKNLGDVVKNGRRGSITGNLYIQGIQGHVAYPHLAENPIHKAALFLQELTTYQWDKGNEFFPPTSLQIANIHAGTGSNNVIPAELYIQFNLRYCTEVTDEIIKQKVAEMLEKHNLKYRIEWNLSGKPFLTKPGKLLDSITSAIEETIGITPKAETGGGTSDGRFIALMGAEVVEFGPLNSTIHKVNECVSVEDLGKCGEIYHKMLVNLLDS
From the text: To conveniently measure the inhibitory potency of test compounds against DapE, we recently developed a ninhydrin-based assay employing the unnatural but well-tolerated substrate N^6-methyl-L,L-SDAP (1b). Enzymatic cleavage of 1b affords primary amine product 3b (Figure 1), which can be quantified spectrophotometrically following treatment with ninhydrin. Importantly, this assay avoids the significant background signal that would be produced by the reaction of the primary amine in native substrate 1a with ninhydrin. […]
DapE inhibition was measured according to the method previously described. In brief, the enzymatic activity of DapE was measured in triplicate at 570 nm by the Ruhemann’s purple complex formed through the reaction of the exposed primary amine and ninhydrin. To 175 µL of 50 mM HEPES (4-(2-hydroxyethyl)-1-piperazineethanesulfonic acid) buffer at pH 7.5 with 5 µL of 1µM DapE stock solution at 30 °C, 20 µL of 10 mM monomethyl SDAP ((2S,6S)-2-(3-carboxypropanamido)-6-(methylamino)heptanedioic acid) TFA salt was added. The reaction was allowed to proceed for 10 min and quenched by heating at 100 °C for 1 min and subsequently cooling on ice for 1 min. To the cooled reaction, 2% ninhydrin reagent in 100% DMSO (final volume 300 µL) was added and subsequently heated to 80 °C for 15 min. This was quenched by placing in ice water for 2 min, and the absorbance of an 80 µL aliquot was read at 570 nm via a microplate reader. These reactions were set as 100% standard enzyme activity of DapE.

[2] = solubility at assay concentration; type: physicochemical; settings: at 200 μM; insol. = insoluble
From the text: The compounds synthesized along with their DapE inhibitory potencies measured using the N-Me-SDAP substrate are summarized in Table 1. We kept the N-acetyl group as well as the 5-halogen moiety constant in this first series while varying the sulfonamide N-substituent. […] Several derivatives had poor solubility, limiting the ability to test inhibition at higher concentrations.

[3] = test system: DapE from Haemophilus influenza (HiDapE); settings: competitive inhibitor of HiDapE; cited from earlier work
[4] = molecular target: DapE (Haemophilus influenzae, UniProt P44514); experiment: high-throughput screen of ~33,000 compounds for DapE inhibitors; type: biochemical; settings: read-out: % inhibition of DapE in high-throughput screen
Sequence of DapE (P44514 whole entry): as above
From the text: We were pleased that these two indoline hit structures provided mutual confirmation of one another. Furthermore, indolines are a privileged scaffold in medicinal chemistry, as there are several examples of indoline-containing drugs approved for a variety of treatments: advanced or transitional cell carcinoma of the urothelial tract (vinflunine), glaucoma and severe anticholinergic toxicity (physostigmine), and schizophrenia in adults (lumateperone), or are under investigation, as for benign prostatic hyperplasia (BPH). Furthermore, sulfonamides are pervasive in agrochemicals and in pharmaceuticals across therapeutic areas, and primary sulfonamides have recently been leveraged as versatile intermediates.

| SMILES | melting point | IC50 [1] | also measured |
| --- | --- | --- | --- |
| CC(=O)N1CCc2cc(Br)c(S(=O)(=O)NCC(C)C)cc21 [9a, 1-Acetyl-5-Bromo-N-Isobutylindoline-6-Sulfonamide] |  |  | inhibition at 200 µM [1]: 20% |
| CC(=O)N1CCc2cc(Br)c(S(=O)(=O)NC3CCCCC3)cc21 [9b, 1-Acetyl-5-Bromo-N-Cyclohexylindoline-6-Sulfonamide] | 226 to 228 °C | 162 µM |  |
| CC(=O)N1CCc2cc(Br)c(S(=O)(=O)NCc3ccccc3)cc21 [9c, 1-Acetyl-N-Benzyl-5-Bromoindoline-6-Sulfonamide] | 205 to 208 °C |  | inhibition at 200 µM [1]: 56% |
| CC(=O)N1CCc2cc(Br)c(S(=O)(=O)NC(C)(C)C)cc21 [9d, 1-Acetyl-5-Bromo-N-(Tert-Butyl)Indoline-6-Sulfonamide] |  |  | inhibition at 100 µM [1]: 39% |
| COC(=O)CNS(=O)(=O)c1cc2c(cc1Br)CCN2C(C)=O [9e, 1-Acetyl-5-Bromoindolin-6-(Sulfonyl Glycine Methyl Ester)] | 179 to 182 °C |  | DapE inhibitory potency in words [1]: nearly inactive; inhibition at 200 µM [1]: 17% |
| COC(=O)CCNS(=O)(=O)c1cc2c(cc1Br)CCN2C(C)=O [9f, Methyl 3-((1-Acetyl-5-Bromoindoline)-6-Sulfonamido)Propanoate] | 190 to 193 °C | 118 µM |  |
| COC(=O)[C@@H](NS(=O)(=O)c1cc2c(cc1Br)CCN2C(C)=O)C(C)C [9g, Methyl ((1-Acetyl-5-Bromoindolin-6-yl)Sulfonyl)Valinate] | 190.9 to 191.7 °C | 82 µM |  |
| COC(=O)[C@H](Cc1ccccc1)NS(=O)(=O)c1cc2c(cc1Br)CCN2C(C)=O [9h, Methyl ((1-Acetyl-5-Bromoindolin-6-yl)Sulfonyl)-L-Phenylalaninate] |  |  | inhibition at 200 µM [1]: 61% |
| CC(=O)N1CCc2cc(Br)c(S(=O)(=O)N3CCCCC3)cc21 [9i, 1-Acetyl-5-Bromo-6-(Piperidin-1-Sulfonyl) Indoline] | 212 to 214 °C | 133 µM |  |
| CC(=O)N1CCc2cc(Br)c(S(=O)(=O)N3CCCC3)cc21 [9j, 1-Acetyl-5-Bromo-6-(Pyrrolidin-1-Sulfonyl) Indoline] | 238 to 240 °C | 97 µM |  |
| CC(=O)N1CCc2cc(Br)c(S(=O)(=O)N3CCc4ccccc43)cc21 [9k, 1-Acetyl-5-Bromo-6-(Indolin-1-Sulfonyl) Indoline] | 215 to 218 °C | 86 µM |  |
| CCCN(CCC)S(=O)(=O)c1cc2c(cc1Br)CCN2C(C)=O [9l, 1-Acetyl-5-Bromo-N,N-Dipropylindoline-6-Sulfonamide] | 118 to 120 °C |  | solubility in the DapE assay [2]: insol.; DapE inhibitory potency in words [1]: significantly less potent; inhibition at 20 µM [1]: 5% |
| COCCN(CCOC)S(=O)(=O)c1cc2c(cc1Br)CCN2C(C)=O [9m, 1-Acetyl-5-Bromo-N,N-bis(2-Methoxyethyl)Indoline-6-Sulfonamide] | 110 to 111 °C |  | DapE inhibitory potency in words [1]: significantly less potent; inhibition at 100 µM [1]: 26% |
| CCN(CC)S(=O)(=O)c1cc2c(cc1Br)CCN2C(C)=O [9n, 1-Acetyl-5-Bromo-N,N-Diethylindoline-6-Sulfonamide] | 195 to 196 °C | 99 µM |  |
| CC(=O)N1CCc2cc(Cl)c(S(=O)(=O)NC3CCCCC3)cc21 [10b, 1-Acetyl-5-Chloro-N-Cyclohexylindoline-6-Sulfonamide] | 230 to 230.5 °C |  | inhibition at 200 µM [1]: 58% |
| C[C@H](CS)C(=O)N1CCC[C@H]1C(=O)O [captopril] |  |  | IC50 [3]: 3.3 µM |
| CC(=O)N1CCc2cc(Br)c(S(=O)(=O)NCCC(C)C)cc21 [compound 4, 1-Acetyl-5-Bromo-N-Isopentylindoline-6-Sulfonamide] | 190 to 191 °C | > 200 µM | inhibition at 12 µM ([4]; at 12 μM, arbitrary hit cutoff): > 20%; inhibition at 200 µM ([1]; at 200 μM, single concentration, read-out: % Inhibition): 42% |
| CC(=O)N1CCc2cc(Br)c(S(=O)(=O)N3CC(C)CC(C)C3)cc21 (stereo not shown) [compound 5] |  |  | inhibition at 12 µM [4]: > 20% |

More lines, main results first:

| melting point | IC50 [1] | SMILES | also measured |
| --- | --- | --- | --- |
|  | 54 µM | CC(=O)N1CCc2cc(Cl)c(S(=O)(=O)NCCC(C)C)cc21 [10a, 1-Acetyl-5-Chloro-N-Isopentylindoline-6-Sulfonamide] | fold more potent than corresponding 5-bromo derivative ([1]; 10a relative to 4): ~ 5 × |
| 199.7 to 201.4 °C | 44 µM | CC(=O)N1CCc2cc(Cl)c(S(=O)(=O)N3CCCCC3)cc21 [10c, 1-(5-Chloro-6-(Piperidin-1-Ylsulfonyl)Indolin-1-yl)Ethan-1-One] | fold more potent than corresponding 5-bromo derivative ([1]; 10c relative to 9i): ~ 3 × |
|  | 172 µM | CC(=O)N1CCc2cc(Cl)c(S(=O)(=O)N3CCCC3)cc21 [10d, 1-(5-Chloro-6-(Pyrrolidin-1-Ylsulfonyl)Indolin-1-yl)ethan-1-One] |  |
|  | 88 µM | CCCN(CCC)S(=O)(=O)c1cc2c(cc1Cl)CCN2C(C)=O [10e, 1-Acetyl-5-Chloro-N,N-Dipropylindoline-6-Sulfonamide] |  |
| 93.2 to 94.4 °C | > 200 µM | COCCN(CCOC)S(=O)(=O)c1cc2c(cc1Cl)CCN2C(C)=O [10f, 1-Acetyl-5-Chloro-N,N-bis(2-Methoxyethyl)Indoline-6-Sulfonamide] |  |
